Active and inactive are the calls of the source. The rule behind the calls is not given here.
Key:
HUVEC [1] = experiment: Inhibition of tube formation in HUVEC at 6.25 uM measured after 24 hrs by Mayers hematoxylin staining based light microscopic analysis relative to control; format: functional; settings: Homo sapiens
HUVEC [2] = experiment: Antimigratory activity against HUVEC at 6.25 uM measured after 24 hrs by Mayers hematoxylin and eosin-Y staining based microscopic analysis relative to control; format: functional, Homo sapiens
MDA-MB-231 [3] = experiment: Cytotoxicity against human MDA-MB-231 cells assessed as decrease in cell viability at 200 uM after 24 hrs by MTT assay; format: functional, cell-based
HUVEC [4] = experiment: Cytotoxicity against HUVEC assessed as inhibition of cell proliferation up to 12.5 uM after 24 hrs by MTT assay; format: cell-based; settings: human
HUVEC [5] = experiment: Cytotoxicity against HUVEC assessed as inhibition of cell proliferation after 24 hrs by MTT assay; format: cell-based; settings: human
[6] = biological target: RAC-alpha serine/threonine-protein kinase (Homo sapiens) (UniProt P31749); experiment: Decrease in phosphorylated Akt level in human MDA-MB-231 cells after 24 hrs by western blotting method; format: cell-based
Chain of RAC-alpha serine/threonine-protein kinase (Homo sapiens) (P31749 whole entry): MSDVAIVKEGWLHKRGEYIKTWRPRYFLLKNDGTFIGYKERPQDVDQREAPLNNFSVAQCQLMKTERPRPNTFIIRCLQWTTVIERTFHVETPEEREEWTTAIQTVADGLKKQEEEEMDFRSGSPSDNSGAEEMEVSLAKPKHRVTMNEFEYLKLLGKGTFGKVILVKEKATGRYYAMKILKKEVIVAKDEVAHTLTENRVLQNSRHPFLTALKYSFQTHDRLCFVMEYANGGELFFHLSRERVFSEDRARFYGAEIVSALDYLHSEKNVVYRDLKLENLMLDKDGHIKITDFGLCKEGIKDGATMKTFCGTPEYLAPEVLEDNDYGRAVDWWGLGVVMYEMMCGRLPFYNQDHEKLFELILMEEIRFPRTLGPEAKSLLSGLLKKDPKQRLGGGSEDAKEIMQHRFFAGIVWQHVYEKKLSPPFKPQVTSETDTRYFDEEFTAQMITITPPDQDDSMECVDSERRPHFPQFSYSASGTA

[7] = biological target: Mitogen-activated protein kinase; ERK1/ERK2 (Homo sapiens) (UniProt P27361+P28482); experiment: Decrease in phosphorylated ERK1/2 level in human MDA-MB-231 cells after 24 hrs by western blotting method; format: cell-based
Chain of Mitogen-activated protein kinase; ERK1/ERK2 (Homo sapiens) (P27361 whole entry, looked up): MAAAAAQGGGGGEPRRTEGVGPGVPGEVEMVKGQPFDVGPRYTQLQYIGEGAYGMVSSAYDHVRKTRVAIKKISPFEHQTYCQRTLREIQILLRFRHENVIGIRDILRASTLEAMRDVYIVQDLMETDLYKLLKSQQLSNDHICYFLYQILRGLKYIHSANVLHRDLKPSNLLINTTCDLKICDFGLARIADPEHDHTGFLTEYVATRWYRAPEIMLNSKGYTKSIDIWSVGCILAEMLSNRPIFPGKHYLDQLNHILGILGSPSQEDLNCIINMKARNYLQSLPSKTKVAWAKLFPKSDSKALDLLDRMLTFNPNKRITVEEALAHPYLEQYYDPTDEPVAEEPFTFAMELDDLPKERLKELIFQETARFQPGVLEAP
Chain of Mitogen-activated protein kinase; ERK1/ERK2 (Homo sapiens) (P28482 whole entry, looked up): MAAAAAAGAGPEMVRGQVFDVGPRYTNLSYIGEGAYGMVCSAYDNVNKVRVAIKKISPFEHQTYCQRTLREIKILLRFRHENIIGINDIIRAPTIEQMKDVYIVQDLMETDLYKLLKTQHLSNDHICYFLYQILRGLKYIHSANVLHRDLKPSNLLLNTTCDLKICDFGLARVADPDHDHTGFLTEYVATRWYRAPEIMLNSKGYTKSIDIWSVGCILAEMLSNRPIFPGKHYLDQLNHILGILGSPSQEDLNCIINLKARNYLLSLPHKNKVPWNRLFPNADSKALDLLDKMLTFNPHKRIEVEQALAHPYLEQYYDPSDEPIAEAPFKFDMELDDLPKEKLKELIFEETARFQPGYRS

MDA-MB-231 [8] = experiment: Cytotoxicity against human MDA-MB-231 cells assessed as decrease in cell viability at 6.25 to 25 uM after 24 hrs by MTT assay; format: functional, cell-based
MDA-MB-231 [9] = experiment: Decrease in VEGF expression in human MDA-MB-231 cells after 24 hrs by western blotting method; format: functional, cell-based

O=C(O[C@@H]1O[C@@H]2COC(=O)c3cc(O)c(O)c(O)c3-c3c(cc(O)c(O)c3O)C(=O)O[C@H]2[C@@H]2OC(=O)c3cc(O)c(O)c(O)c3-c3c(cc(O)c(O)c3O)C(=O)O[C@@H]12)c1cc(O)c(O)c(Oc2c(O)c(O)c(O)c3c2C(=O)O[C@H]2[C@@H]4OC(=O)c5cc(O)c(O)c(O)c5-c5c(cc(O)c(O)c5O)C(=O)O[C@H]4[C@@H](OC(=O)c4cc(O)c(O)c(O)c4)O[C@@H]2COC(=O)c2cc(O)c(O)c(O)c2-3)c1
inhibition at 6.25 µM (HUVEC [1]): 41.5%
Activity (HUVEC [2]): 37.6%
inhibition (MDA-MB-231 [3]): Active
Activity (HUVEC [4]): Non-toxic
inhibition (INH) (HUVEC [5]): Dose-dependent effect
inhibition [6]: Active
inhibition [7]: Active
inhibition (MDA-MB-231 [8]): inactive
inhibition (MDA-MB-231 [9]): Active
